pIC50: −log10 of the molar value. Bounds are passed on as bounds.

A short description of test [1]: Relative binding to Phosphodiesterase 1 and Phosphodiesterase 7, ratio of IC50.
Test [2] in a line: Relative binding to Phosphodiesterase 3 and Phosphodiesterase 7, ratio of IC50.
A short description of test [3]: Relative binding to Phosphodiesterase 4 and Phosphodiesterase 7, ratio of IC50.
Test [4] is described as follows: Relative binding to Phosphodiesterase 5 and Phosphodiesterase 7, ratio of IC50.
A short description of test [5]: Inhibition of Phosphodiesterase 7.
The nature of test [6]: Relative binding to Phosphodiesterase 2 and Phosphodiesterase 7, ratio of IC50.
Test [7] is described as follows: Inhibition of Phosphodiesterase 1.
Test [8] concerns the target cGMP-dependent 3',5'-cyclic phosphodiesterase (Homo sapiens, UniProt O00408). In words: Inhibition of Phosphodiesterase 2.
Test [9] can be described thus: Inhibition of Phosphodiesterase 4.
Test [10] in a line: Inhibition of Phosphodiesterase 5.
The next test concerns the target Phosphodiesterase 3 (Homo sapiens, UniProt Q14432+Q13370). Kind of test: Inhibition of Phosphodiesterase 3. Type of test: protein assay.

Chain of cGMP-dependent 3',5'-cyclic phosphodiesterase (O00408 whole entry): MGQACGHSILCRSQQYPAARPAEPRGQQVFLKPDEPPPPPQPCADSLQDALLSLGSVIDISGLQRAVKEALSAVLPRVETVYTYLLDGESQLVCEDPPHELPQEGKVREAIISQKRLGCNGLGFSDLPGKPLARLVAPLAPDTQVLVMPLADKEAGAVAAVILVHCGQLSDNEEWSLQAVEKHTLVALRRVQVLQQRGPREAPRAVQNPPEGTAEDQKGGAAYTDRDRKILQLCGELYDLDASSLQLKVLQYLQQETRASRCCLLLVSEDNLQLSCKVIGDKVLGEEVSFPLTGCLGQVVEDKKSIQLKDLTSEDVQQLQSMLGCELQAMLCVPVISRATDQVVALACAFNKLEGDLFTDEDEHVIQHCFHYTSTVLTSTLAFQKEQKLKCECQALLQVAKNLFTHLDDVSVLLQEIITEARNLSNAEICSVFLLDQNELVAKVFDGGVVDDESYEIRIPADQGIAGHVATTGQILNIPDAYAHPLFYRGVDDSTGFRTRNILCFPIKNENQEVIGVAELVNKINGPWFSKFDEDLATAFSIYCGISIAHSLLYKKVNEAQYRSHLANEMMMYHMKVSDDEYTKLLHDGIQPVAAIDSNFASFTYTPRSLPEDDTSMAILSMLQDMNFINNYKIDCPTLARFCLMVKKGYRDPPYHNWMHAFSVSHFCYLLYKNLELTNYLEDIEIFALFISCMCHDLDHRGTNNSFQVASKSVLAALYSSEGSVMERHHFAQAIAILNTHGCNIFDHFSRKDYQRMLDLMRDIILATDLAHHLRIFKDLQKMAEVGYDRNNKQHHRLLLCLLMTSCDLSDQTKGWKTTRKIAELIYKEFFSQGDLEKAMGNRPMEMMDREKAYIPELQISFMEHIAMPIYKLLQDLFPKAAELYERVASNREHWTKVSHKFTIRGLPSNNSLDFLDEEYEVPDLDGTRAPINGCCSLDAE

`CCOC(=O)c1sc(Nc2nc(N3CCNCC3)c3c(n2)N(Cc2cc(OC)c(OC)c(OC)c2)CC3)nc1C`: the Ratio in test [1] was determined as 576; in [2] it was 1880; in test [3] it was 795; in [4] it was 362. In addition, the pIC50 in [5] was 8.22.
Consider `CCOC(=O)c1sc(Nc2nc(N3CCNCC3)c3c(n2)N(Cc2cccnc2)CCC3)nc1C`, for which the Ratio in test [1] was found to be 162; in test [6], 33; in [2] it was 390; in test [3], 35; in test [4], 13. In test [5], this compound showed a pIC50 of 7.00.
Turning to `CCOC(=O)c1sc(Nc2nc(N3CCNCC3)c3c(n2)N(Cc2cc(OC)c(OC)c(OC)c2)CCC3)nc1C`, the Ratio in test [1] was 166; in test [6] it was 114; in test [2], 734; in test [3], 105; in test [4] it was 182. This compound showed a pIC50 in [5] of 7.52.
As to `CCOC(=O)c1sc(Nc2nc(NCc3ccc(S(N)(=O)=O)cc3)c3c(ncn3CC)n2)nc1C`, the pIC50 in test [7] was 6.02; in test [8], 6.02; in test [9] it was 6.26; in test [10] it was 7.96; in [5], 7.96. The compound also registered an IC50 at Phosphodiesterase 3 of 2970 nM.
Turning to `CCOC(=O)c1sc(Nc2nc(N3CCN(C)CC3)c3c(n2)N(Cc2cc(OC)c(OC)c(OC)c2)CC3)nc1C`, the Ratio was found to be 156 in [1], 315 in test [2], 189 in test [3] and 104 in test [4]. The compound also gave a negative logarithm of the IC50 (pIC50) in test [5] of 7.70.
Turning to `CCOC(=O)c1sc(Nc2nc(N3CCNCC3)c3c(n2)N(Cc2ccc(S(C)(=O)=O)cc2)CCC3)nc1C`, the Ratio turned out to be 157 in [1]; 27 in [6]; 392 in test [2]; 54 in test [3]; 8 in test [4]. This compound also gave a pIC50 in [5] of 7.22.
With `CCOC(=O)c1sc(Nc2nc(NC)c3ncn(Cc4ccc(S(C)(=O)=O)cc4)c3n2)nc1C`, the Ratio in test [1] came to 556; in test [2] it was 259; in [3] it was 3; in test [4] it was 8. In addition, the pIC50 is 4.30 in [7], 6.57 in [9], 6.14 in test [10] and 7.05 in [5]. The compound further came in with an IC50 against Phosphodiesterase 3 of 23300 nM.
In the case of `CCOC(=O)c1sc(Nc2nc(N3CCN(C)CC3)c3c(n2)N(Cc2cc(OC)c(OC)c(OC)c2)CCC3)nc1C`, the Ratio came out at 39 in [1], 174 in test [2], 27 in [3] and 9 in test [4]. This compound had a pIC50 in test [5] of 6.82.
The like results for `CCOC(=O)c1sc(Nc2nc(N3CCNCC3)c3c(n2)N(Cc2cc(OC)c(OC)c(OC)c2)CCO3)nc1C` were, in that order, 1170, 3850, 1200, 1240 and 8.30.
For `CCOC(=O)c1sc(Nc2nc(NC)c3c(n2)N(Cc2ccc(S(C)(=O)=O)cc2)CC3)nc1C`, the Ratio in [3] is 6. Moreover, the negative logarithm of the IC50 (pIC50) in test [5] was 6.47.
Turning to `CCOC(=O)c1sc(Nc2nc(N3CCN(C)CC3)c3c(n2)N(Cc2cc(OC)c(OC)c(OC)c2)CCO3)nc1C`, the Ratio in [1] came to 64; in [2], 206; in [3], 67; in [4] it was 64. This compound also showed a pIC50 in test [5] of 7.15.
For the compound `CCOC(=O)c1sc(Nc2nc(NCc3ccc(OC)c(OC)c3)c3c(ncn3CC)n2)nc1C`, the Ratio was 1.5 in [1]; 11 in [6]; 3.8 in test [2]; 7.3 in test [3]; 1.8 in test [4]. In addition, the pIC50 is 6.66 in test [7], 5.77 in test [8], 6.57 in test [10] and 6.82 in test [5]. The IC50 on Phosphodiesterase 3 amounted to 580 nM.
Regarding `CCOC(=O)c1sc(Nc2nc(N3CCNCC3)c3c(n2)N(Cc2ccc(S(C)(=O)=O)cc2)CC3)nc1C`, the Ratio was determined as 352 in test [1], 1030 in test [2], 94 in [3] and 1 in test [4]. For the same compound, in [5], the pIC50 is 7.70.
For `CCCc1nn(C)c2c(=O)[nH]c(-c3cc(S(=O)(=O)N4CCN(C)CC4)ccc3OCC)nc12`, the pIC50 in [7] was under 5.00; in [9], 5.34; in [10], 7.96; in [5], under 5.00.
With `COc1ccc(C2CNC(=O)C2)cc1OC1CCCC1` (stereo not given) [ROLIPRAM], the negative-log IC50 (pIC50) in test [7] was under 5.00; in [8], under 5.00; in test [9], 6.13; in test [10], under 5.00; in test [5], under 5.00. Further, the IC50 at Phosphodiesterase 3 is over 10000 nM.
With `CCOC(=O)c1sc(Nc2nc(N3CCN(O)CC3)c3c(n2)N(Cc2ccccn2)CC3)nc1C`, the Ratio is 35 in test [1], 154 in test [2], 13 in test [3] and 7 in [4]. Further, the negative-log IC50 (pIC50) in test [5] is 6.82.

The record behind these values is ChEMBL document CHEMBL1143499, “Fused pyrimidine based inhibitors of phosphodiesterase 7 (PDE7): synthesis and initial structure-activity relationships” (Bioorg Med Chem Lett, 2005).
